# From patent publication US20240245634A1, “PCNA INHIBITORS AND EGFR INHIBITORS FOR CANCER TREATMENT” (City of Hope, priority 2021, published 2024)
# “Also recorded” adds a separate entry of the source.
# Key:
# NCI60 cell line panel = experiment: Growth inhibition on the NCI60 cell line panel (NCI Developmental Therapeutics Program); assay type: cell-based
# Text: (§1) Studies that explored acquisition of resistance to Osi have identified many genomic alterations that contribute to resistance. These alterations are present in some of the cell lines in the NCI60 cell line panel. The growth inhibitory effects of AOH1996 on the NCI60 panel has been measured through services offered by the NCI's Development Therapeutics Program.
# PCNA = molecular target: T1, PCNA (Homo sapiens, UniProt P12004); experiment: Immunofluorescence imaging of PCNA in MDA-MB-468 cells; assay type: cell-based; settings: MDA-MB-468, serum starved, 30 minutes drug, then 15 minutes EGF
# T1 construct: endogenous in cells; host or cells: MDA-MB-468
# Procedure: (§2) Serum starved cells were treated for 30 minutes with DMSO, AOH1996, Osi, or AOH1996 and Osi followed by 15 minutes of EGF stimulation.
# tumors = experiment: In vivo tumor suppression and tolerability
# EGFR = molecular target: T2, EGFR (Homo sapiens, UniProt P00533); experiment: Immunofluorescence imaging of EGFR in MDA-MB-468 cells; assay type: cell-based; settings: MDA-MB-468, serum starved, 30 minutes drug, then 15 minutes EGF
# T2 construct: endogenous in cells; host or cells: MDA-MB-468
# Procedure: as §2
# CRC cell lines = experiment: IC50 on colorectal cancer cell lines of the NCI60 panel; assay type: cell-based; settings: IC50 determined by the NCI Developmental Therapeutics Program
# Procedure: FIGS. 7A-7B show EGFR targeted antibodies used in the treatment of colorectal cancer (CRC). […] CRC with KRAS and BRAF activating mutations are often difficult to treat but cell lines with mutant KRAS and BRAF are responsive to AOH1996. FIG. 7A: IC50 of CRC cell lines relative to the rest of the NCI60 cell lines. FIG. 7B: AOH1996 IC50 on CRC cell lines classified by presence and type of Ras-Raf-Mek-Erk pathway mutation. IC50s for the NCI60 cell lines was determined by the NCI Developmental Therapeutics Program. Mutation status of CRC cell lines was found in the Cellosaurus database.
# [1] = test system: cell lines (14837, 14838) engineered to express oncogenic KRAS; experiment: Dose response assay on cell lines with doxycycline-inducible mutant KRAS; assay type: cell-based; settings: with doxycycline (KRAS expressed) versus without
# Procedure: Some of those alterations are present in the NCI60 cell line and represented in the chart. Each circle represent cell lines with the resistance conferring genomic alteration listed on the x-axis. […] FIG. 5F: two cell lines (14837, 14838) engineered to express oncogenic KRAS in the presence of doxycycline (Dox) were treated with escalating doses of AOH1996 in a dose response assay.
# as §1
# T1 sequence (P12004 whole entry): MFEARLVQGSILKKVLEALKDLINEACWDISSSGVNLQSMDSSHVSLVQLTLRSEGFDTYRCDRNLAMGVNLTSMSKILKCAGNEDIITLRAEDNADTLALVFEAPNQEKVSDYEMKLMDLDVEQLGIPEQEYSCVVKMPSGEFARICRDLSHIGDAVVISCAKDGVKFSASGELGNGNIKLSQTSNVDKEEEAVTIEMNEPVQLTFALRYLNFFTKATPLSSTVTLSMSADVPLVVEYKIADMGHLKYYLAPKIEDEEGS
# T2 sequence (P00533 25-1210): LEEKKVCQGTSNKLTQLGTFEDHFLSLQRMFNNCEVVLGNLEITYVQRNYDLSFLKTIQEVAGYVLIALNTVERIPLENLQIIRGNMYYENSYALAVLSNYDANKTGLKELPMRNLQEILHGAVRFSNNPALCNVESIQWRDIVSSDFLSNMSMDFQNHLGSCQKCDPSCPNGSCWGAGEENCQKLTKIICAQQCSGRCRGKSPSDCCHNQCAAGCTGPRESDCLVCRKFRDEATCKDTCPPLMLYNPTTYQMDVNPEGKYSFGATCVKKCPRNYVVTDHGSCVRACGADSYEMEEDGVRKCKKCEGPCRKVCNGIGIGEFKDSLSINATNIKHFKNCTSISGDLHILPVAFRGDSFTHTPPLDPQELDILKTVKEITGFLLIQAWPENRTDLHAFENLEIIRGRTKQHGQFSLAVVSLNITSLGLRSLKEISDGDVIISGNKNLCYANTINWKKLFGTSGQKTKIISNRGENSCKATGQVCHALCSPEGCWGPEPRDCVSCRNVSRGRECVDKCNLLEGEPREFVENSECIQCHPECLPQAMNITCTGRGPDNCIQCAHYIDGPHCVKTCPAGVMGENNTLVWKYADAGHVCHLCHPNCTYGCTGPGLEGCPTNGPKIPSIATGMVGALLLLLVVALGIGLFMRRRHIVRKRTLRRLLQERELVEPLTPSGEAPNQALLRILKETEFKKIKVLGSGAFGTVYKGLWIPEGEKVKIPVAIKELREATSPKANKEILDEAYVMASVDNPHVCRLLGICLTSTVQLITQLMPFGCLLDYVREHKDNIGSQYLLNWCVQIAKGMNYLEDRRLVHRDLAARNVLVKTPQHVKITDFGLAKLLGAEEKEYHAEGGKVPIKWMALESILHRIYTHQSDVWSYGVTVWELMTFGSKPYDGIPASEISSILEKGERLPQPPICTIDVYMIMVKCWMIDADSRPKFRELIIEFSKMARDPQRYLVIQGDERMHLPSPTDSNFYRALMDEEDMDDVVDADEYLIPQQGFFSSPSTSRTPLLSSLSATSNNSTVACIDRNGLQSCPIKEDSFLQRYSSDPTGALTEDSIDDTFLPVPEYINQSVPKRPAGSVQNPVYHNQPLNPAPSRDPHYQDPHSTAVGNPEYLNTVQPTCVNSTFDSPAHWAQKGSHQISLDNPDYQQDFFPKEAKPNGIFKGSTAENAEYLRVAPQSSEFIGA
SMILES,effect of genomic alterations conferring resistance to osimertinib on sensitivity to AOH1996 (NCI60 cell line panel; NCI60 cell lines carrying the alterations),sensitivity of BRAF and KRAS mutant cell lines to AOH1996 (NCI60 cell line panel; NCI60 cell lines with BRAF V600E and activating KRAS mutations),PCNA localization (PCNA),dose with no discernable side effects (tumors),route of administration (tumors),effect on tumors in vivo (tumors; oral),EGFR localization and signal (EGFR),response of CRC cell lines with mutant KRAS and BRAF (CRC cell lines),sensitivity of CRC cell lines relative to the rest of the NCI60 cell lines (CRC cell lines),sensitivity with mutant KRAS expressed versus expression suppressed [1]
COc1cccc(Oc2ccccc2NC(=O)CNC(=O)c2cccc3ccccc23)c1 [AOH1996],did not confer resistance,noticeable skew in distribution towards AOH1996 sensitivity; also recorded: greater sensitivity,lost punctate staining of PCNA in the nucleus; also recorded: Nuclear PCNA foci were absent,more than 6 times its effective dose,orally administrable,effectively kills and suppresses tumors,accumulated EGFR at the cell membrane; also recorded: EGFR was localized to the cell membrane,responsive,particularly sensitive,sensitive to AOH1996 when mutant KRAS is expressed but not when expression was suppressed; also recorded: more sensitive
"C=CC(=O)Nc1cc(Nc2nccc(-c3cn(C)c4ccccc34)n2)c(OC)cc1N(C)CCN(C)C [osimertinib, reference compound]",–,–,less apparent,–,–,–,–,–,–,–
